The numbers were not newly measured in paper PMC3582496 (PLoS Biology, 2013), which cites them from elsewhere.

The subject of data set [1] is CN.
The test system of data set [2] is CN. The source holds these as a separate data set.

`C=CC[C@@H]1/C=C(\C)C[C@H](C)C[C@H](OC)[C@H]2O[C@@](O)(C(=O)C(=O)N3CCCC[C@H]3C(=O)O[C@H](/C(C)=C/[C@@H]3CC[C@@H](O)[C@H](OC)C3)[C@H](C)[C@@H](O)CC1=O)[C@H](C)C[C@@H]2OC` [FK506]: in data set [1], the “effect on rate of pNpp hydrolysis” value was “rate increases”.

With “DLDVPIPGRFDRRVpSVCAE [RII phosphopeptide]”, in data set [2], the Km (as a rule, the concentration of substrate that gives half-maximal velocity) is 26 µM and the maximal velocity (Vmax) (commonly the rate approached at saturating substrate) was 1.7 µmol/min/mg.

As to cyclosporin A [CSA], in data set [1], the “effect on rate of pNpp hydrolysis” value is reported as “rate increases”.
